# Assay results reported in paper PMC7534336, “New classes of potent heparanase inhibitors from ligand-based virtual screening” (Journal of Enzyme Inhibition and Medicinal Chemistry, 2020).
# Values joined by “and” are separate entries in the source; they are usually repeats but may differ in a detail not shown here. Identical values can stand only once. Like-named read-outs stand apart in the source and are kept apart here.
# Legend:
# [1] = molecular target: heparanase; conditions: literature value of reference inhibitor 6; read-out: reported IC50; cited from earlier work
# [2] = tested on: HT1080 cells; assay: Matrigel cell invasion assay, HT1080; assay type: cell-based, human; conditions: 24 h of treatment; for inhibition at 10 µM: concentration tested 10 µM
# Method: (§1) Cells were pre-treated with the indicated drug concentrations in complete medium for 24 h. Then, cells were harvested, resuspended in serum-free medium, and transferred (2.5 × 10^4 cells per filter) to the upper chamber of 24-well Transwell plates (Costar, Corning Inc., Corning, NY) previously coated with Growth Factor Reduced Matrigel (BD Biosciences, San Jose, CA). The same drug concentration used for cell pre-treatment was added to both the upper and lower chambers. After 24 h of incubation, cells that invaded the Matrigel were stained with SRB and then counted through a microscope at 40× −100× magnification depending on cell density. Data were expressed as the % inhibition of cell invasion, with respect to cell invasion in the absence of drugs.
# [3] = tested on: U2OS cells; assay: Matrigel cell invasion assay, U2OS; assay type: cell-based, human; conditions: 24 h of treatment; for inhibition at 10 µM: concentration tested 10 µM
# Method: as §1
# [4] = tested on: U87MG cells; assay: Matrigel cell invasion assay, U87MG; assay type: cell-based, human; conditions: 24 h of treatment; for inhibition at 10 µM: concentration tested 10 µM
# Method: as §1
# [5] = tested on: U87MG (glioblastoma) cells; assay: proliferation assay (sulforhodamine B), U87MG; assay type: cell-based, human; conditions: 72 h, range 10–0.2 µM, SRB, read-out: IC50, inhibition of cell proliferation
# Method: (§2) HT1080 (fibrosarcoma), U87MG (glioblastoma), and U2OS (osteosarcoma) human cell lines were purchased from the American Type Culture Collection (ATCC; Manassas, VA) and maintained according to the manufacturer’s recommendations. Briefly, HT1080 and U87MG were grown in modified Eagle medium (Thermo Fisher Scientific), while U2OS cells were grown in McCoy’s 5a medium (Thermo Fisher Scientific), all supplemented with 10% FCS (Thermo Fisher Scientific), 100 U/mL penicillin, and 100 μg/mL streptomycin (Thermo Fisher Scientific) and 2 mM L-glutamine (Thermo Fisher Scientific). Cell lines were maintained at 37 °C with a humidified 5% CO2 atmosphere.
# (§3) HT1080, U87MG, and U2OS exponentially growing cells were seeded into 96-well plates and then, 24 h later, treated for 72 h with several dilutions of test compounds in the range 10 − 0.2 μM. Inhibition of cell proliferation was measured by means of a classical sulforhodamine B (SRB) assay[40] performed in triplicate.
# [6] = tested on: HT1080 (fibrosarcoma) cells; assay: proliferation assay (sulforhodamine B), HT1080; assay type: cell-based, human; conditions: HT1080, 72 h, range 10–0.2 µM, SRB, read-out: IC50, inhibition of cell proliferation
# Method: as §2, §3
# [7] = molecular target: human GS3 heparanase (Homo sapiens, UniProt Q9Y251); assay: fondaparinux assay of heparanase enzymatic activity (WST-1 colorimetric); assay type: biochemical; conditions: fondaparinux assay on human GS3 heparanase; mean of triplicates; read-out: IC50 (µM) ± SD, heparanase inhibitory activity
# human GS3 heparanase, sequence (Q9Y251 other isoform, or with tags, fused parts or gaps): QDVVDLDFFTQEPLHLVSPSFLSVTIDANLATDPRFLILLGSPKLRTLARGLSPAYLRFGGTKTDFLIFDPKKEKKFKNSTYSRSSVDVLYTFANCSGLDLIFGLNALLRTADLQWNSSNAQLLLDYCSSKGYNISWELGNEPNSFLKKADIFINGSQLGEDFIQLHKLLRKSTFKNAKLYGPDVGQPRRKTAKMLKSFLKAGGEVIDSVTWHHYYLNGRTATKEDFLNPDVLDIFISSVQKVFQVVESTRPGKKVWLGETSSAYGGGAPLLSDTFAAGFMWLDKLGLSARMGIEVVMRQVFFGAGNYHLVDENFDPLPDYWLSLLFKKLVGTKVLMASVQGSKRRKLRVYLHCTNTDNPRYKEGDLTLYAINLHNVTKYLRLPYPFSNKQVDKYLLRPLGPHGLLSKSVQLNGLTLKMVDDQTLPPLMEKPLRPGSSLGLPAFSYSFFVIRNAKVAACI
# Text: To determine the activity of the heparanase inhibitors, a homogeneous assay based on the cleavage of the synthetic heparin oligosaccharide fondaparinux (Arixtra; Aspen) was used. The assay measures colorimetrically the appearance of the disaccharide product of heparanase-catalysed fondaparinux cleavage using the tetrazolium salt WST-1. The assay was essentially performed as described[39] with minor modifications. Briefly, Nunc 96-well (Thermo Fisher Scientific) plates were pre-treated with a solution of 4% BSA (bovine serum albumin, Sigma-Aldrich) in phosphate-buffered saline containing 0.05% Tween 20 (PBST), for 2 h at 37 °C, and then washed three times with PBST. […] The IC50 value for each compound was calculated by GraphPad software. Finally, the measurements were corrected by subtracting both the reagent background and the inner absorbance value of test compound.
# Supporting Table S1 reports the structures of the fifty-five compounds purchased and tested, with information, for each compound, on the database from which it was retrieved, the reference inhibitor used to retrieve it and the similarity value with the reference inhibitor.
# [8] = tested on: U2OS (osteosarcoma) cells; assay: proliferation assay (sulforhodamine B), U2OS; assay type: cell-based, human; conditions: 72 h, range 10–0.2 µM, SRB, read-out: IC50, inhibition of cell proliferation
# Method: as §2, §3
# [9] = tested on: FGF-1, FGF-2, VEGF, MMP-9 and heparanase mRNA in HT1080 cells; assay: real-time qPCR of angiogenesis-related genes and heparanase in HT1080 cells; assay type: cell-based, human; conditions: 1 µM, 24 h, q-PCR
# Method: Total RNA was extracted from HT1080 cells, upon 24 h of treatment with test compounds (1 µM) and then retrotranscribed using the iScript Advanced cDNA Synthesis Kit for RT-qPCR (Bio-Rad Laboratories Inc., Hercules, CA) according to the manufacturer’s instructions. Real time quantitative PCR analysis was performed using SsoAdvanced Universal SYBR Green Supermix (Bio- Rad Laboratories Inc., Hercules, CA) and the following PrimePCR SYBR Green Assays: qHsaCID0015228 (heparanase), qHsaCED0002206 (FGF-1), qHsaCID0015510 (FGF-2), qHsaCID0011597 (MMP-9), and qHsaCED0043454 (VEGF-A) (Bio-Rad Laboratories Inc., Hercules, CA). The 7900HT Sequence Detection System instrument and software (Applied Biosystems) were used to quantify the relative expression of the target genes. Tests were performed in triplicate.
smiles,measurement,setting,value
O=C(O)Cc1ccc2oc(-c3ccc(NC(=O)Nc4ccc(-c5nc6cc(CC(=O)O)ccc6o5)cc4F)c(F)c3)nc2c1 [Compound 6],IC50,[1],0.18 µM
"COc1ccc(C(=O)Nc2ccc(CNc3ccc(-c4nc5ccccc5[nH]4)cc3)cc2)cc1Br [Compound 7, reference compound]",inhibition at 1 µM,"[2]; Homo sapiens, HT-1080, concentration tested 1.0 µM",88 ± 2%
same,inhibition at 1 µM,"[3]; Homo sapiens, U2OS, concentration tested 1.0 µM",82 ± 2%
same,inhibition at 1 µM,"[4]; Homo sapiens, U-87 MG, concentration tested 1.0 µM",78 ± 3%
COc1cc(/N=N/c2cc(S(=O)(=O)O)cc3cc(S(=O)(=O)O)cc(O)c23)c(C)cc1NC(=O)Nc1cc(C)c(/N=N/c2cc(S(=O)(=O)O)cc3cc(S(=O)(=O)O)cc(O)c23)cc1OC [Compound 16],IC50,"[5]; Homo sapiens, U-87 MG",> 10 µM
same,IC50,"[6]; Homo sapiens, HT-1080",> 10 µM
same,inhibition at 10 µM,"[2]; Homo sapiens, HT-1080",93 ± 1%
same,IC50,[7],< 0.5 µM and 0.37 µM
same,inhibition at 10 µM,"[3]; Homo sapiens, U2OS",< 0%
same,inhibition at 10 µM,"[4]; Homo sapiens, U-87 MG",10 ± 4%
same,IC50,[8]; Homo sapiens,> 10 µM
O=C(Nc1cccc(-c2nc3ccccc3[nH]2)c1)c1ccc(Oc2ccc(C(=O)Nc3cccc(-c4nc5ccccc5[nH]4)c3)cc2)cc1 [Compound 29],IC50,"[5]; Homo sapiens, U-87 MG",> 10 µM
same,IC50,"[6]; Homo sapiens, HT-1080",> 10 µM
same,inhibition at 2.5 µM,"[2]; Homo sapiens, HT-1080, concentration tested 2.5 µM",29 ± 4%
same,IC50,[7],< 0.5 µM and 0.38 µM
same,inhibition at 2.5 µM,"[3]; Homo sapiens, U2OS, concentration tested 2.5 µM",18 ± 3%
same,inhibition at 2.5 µM,"[4]; Homo sapiens, U-87 MG, concentration tested 2.5 µM",15 ± 3%
same,IC50,[8]; Homo sapiens,> 10 µM
O=C(Nc1ccc(-c2nc3ccccc3[nH]2)cc1)c1ccc(C(=O)Nc2ccc(-c3nc4ccccc4[nH]3)cc2)cc1 [Compound 61],IC50,[5],> 10 µM
same,IC50,[6],> 10 µM
same,Invasion assay inhibition (%) HT1080,[2]; concentration tested 2.5 µM,41 ± 3%
same,Invasion assay inhibition (%) U2OS,[3]; concentration tested 2.5 µM,80 ± 2%
same,Invasion assay inhibition (%) U87MG,[4]; concentration tested 2.5 µM,43 ± 5%
same,IC50,[8],> 10 µM
same,effect on transcription of heparanase,[9],not or very weakly affected
same,"effect on transcription of proangiogenic genes (FGF-1, FGF-2, VEGF, MMP-9)",[9],significant inhibitory effect
O=C(O)c1ccc2c(c1)C(=O)N(c1ccc(NC(=O)c3cccc(C(=O)Nc4ccc(N5C(=O)c6ccc(C(=O)O)cc6C5=O)cc4Cl)c3)c(Cl)c1)C2=O [Compound 63],IC50,[5],> 10 µM
same,IC50,[6],> 10 µM
same,Invasion assay inhibition (%) HT1080,[2]; concentration tested 2.5 µM,39 ± 6%
same,Invasion assay inhibition (%) U2OS,[3]; concentration tested 2.5 µM,75 ± 3%
same,Invasion assay inhibition (%) U87MG,[4]; concentration tested 2.5 µM,45 ± 4%
same,IC50,[8],> 10 µM
same,effect on transcription of heparanase,[9],not or very weakly affected
same,"effect on transcription of proangiogenic genes (FGF-1, FGF-2, VEGF, MMP-9)",[9],significant inhibitory effect
"Cc1ccc(C(=O)Nc2ccc(S(=O)(=O)O)c3cc(S(=O)(=O)O)cc(S(=O)(=O)O)c23)cc1NC(=O)c1cccc(NC(=O)Nc2cccc(C(=O)Nc3cc(C(=O)Nc4ccc(S(=O)(=O)O)c5cc(S(=O)(=O)O)cc(S(=O)(=O)O)c45)ccc3C)c2)c1 [suramin, reference compound]",IC50,"[5]; Homo sapiens, U-87 MG",> 10 µM
same,IC50,"[6]; Homo sapiens, HT-1080",> 10 µM
same,inhibition at 10 µM,"[2]; Homo sapiens, HT-1080",22 ± 5%
same,inhibition at 10 µM,"[3]; Homo sapiens, U2OS",< 0%
same,inhibition at 10 µM,"[4]; Homo sapiens, U-87 MG",< 0%
same,IC50,[8]; Homo sapiens,> 10 µM
